On to `COc1ccc(C2=NN(Cc3ccc([N+](=O)[O-])cc3)C(=O)CC2)cc1OC` [Example 1, 2-(4-Nitrobenzyl)-6-(3,4-dimethoxyphenyl) -2,3,4,5-tetrahydropyridazin-3-one], for which the melting point was 126 °C.

One may read the melting point as the temperature, or range, at which the solid turns liquid.

Source of the values: US20020111356A1, “Arylalkylpyridazinones” (MERCK KGAA, priority 1995, published 2002).
